{
  "source": "paper PMC11484942",
  "about": "“Rumicidins are a family of mammalian host-defense peptides plugging the 70S ribosome exit tunnel” (Nature Communications, 2024)",
  "key": {"mycobacteria": {"test_system": "mycobacteria", "settings": "cited from earlier work", "excerpt": "To estimate the therapeutic potential of rumicidins as candidate compounds for combating bacterial infections, we assessed their antimicrobial activity against a wide panel of strains. As expected, antibacterial activities of rumicidins, like those of known PrAMPs, decreased in most cases in the presence of salt, which might inhibit the adsorption of the peptides to the bacterial surface. Besides, their activities against Gram-negative bacteria deficient in SbmA protein (Pseudomonas aeruginosa and Proteus mirabilis) were also less pronounced. Amon ..."}, "[1]": {"test_system": "E. coli 1057 R2 (rpoS^Q3stop, macB^N470D)", "settings": "MHB + 0.9% NaCl", "experimental": "Minimum inhibitory concentrations (MIC) were determined by broth microdilution assay based on Clinical and Laboratory Standards Institute (CLSI) guidelines using BSA in the growth medium to minimize AMP nonspecific adsorption. Bacterial test cultures were grown in the Mueller-Hinton broth (MHB, Sigma) at 37 °C to mid-log phase and then diluted with the 2× MH medium supplemented with 1.8% NaCl (or without salt) so that to reach a final cell concentration of 10^6 CFU/mL. 50 µL of the obtained bacterial suspension were added to aliquots of 50 µL of the peptide solutions serially diluted with sterilized 0.1% bovine serum albumin (BSA) in 96-well flat-bottom polystyrene microplates (Eppendorf #0030730011). […] To verify MIC values, the respiratory activity of the bacteria was determined. Briefly, 5 µL of 0.5 mg/mL resazurin (Sigma) was added to the wells after 24 h (or after 48 h for M. smegmatis) of incubation, and the plate was incubated for additional 3 h. In some cases, MICs were determined in the Lysogeny Broth (LB) or Middlebrook 7H9 medium. The reduction of resazurin to resorufin was recorded. […] The results were expressed as the median values determined based on at least three independent experiments performed in triplicate.\n(§1) Resistance induction experiments were performed using the previously described method. This approach allows for monitoring MIC values after each transfer. Briefly, on the first day, the overnight culture of the wild-type bacteria was diluted with the 2× MHB supplemented with 1.8% NaCl (or without salt) to reach a final cell concentration of 10^6 CFU/mL. 50 µL of the obtained bacterial suspension were added to aliquots of 50 µL of the peptide solutions serially diluted with the sterilized 0.1% BSA in 96-well flat-bottom polystyrene microplates. After incubation for 20 ± 2 h at 37 °C and 950 rpm, MICs were determined as described above. For each subsequent daily transfer, 2–4 μL of the inoculum taken from the first well containing a sub-inhibitory drug concentration was diluted with 2 mL of the fresh 2× MHB supplemented with 1.8% NaCl (or without salt). […] Multiple repeated passages in the presence of antimicrobial agents were performed for each bacterial strain during the experiment. Bacteria that grew at the highest concentrations of AMPs on the final day were passaged further 3 times on drug-free agar plates before determining the final MIC value."}, "panel of tested strains": {"test_system": "panel of tested strains", "settings": "over all tested strains of Fig. 6a", "protocol": "(§3) Minimum inhibitory concentrations (MIC) were determined by broth microdilution assay based on Clinical and Laboratory Standards Institute (CLSI) guidelines using BSA in the growth medium to minimize AMP nonspecific adsorption[49]. Bacterial test cultures were grown in the Mueller-Hinton broth (MHB, Sigma) at 37 °C to mid-log phase and then diluted with the 2× MH medium supplemented with 1.8% NaCl (or without salt) so that to reach a final cell concentration of 10^6 CFU/mL. 50 µL of the obtained bacterial suspension were added to aliquots of 50 µL of the peptide solutions serially diluted with sterilized 0.1% bovine serum albumin (BSA) in 96-well flat-bottom polystyrene microplates (Eppendorf #0030730011). […] To verify MIC values, the respiratory activity of the bacteria was determined. Briefly, 5 µL of 0.5 mg/mL resazurin (Sigma) was added to the wells after 24 h (or after 48 h for M. smegmatis) of incubation, and the plate was incubated for additional 3 h. In some cases, MICs were determined in the Lysogeny Broth (LB) or Middlebrook 7H9 medium. The reduction of resazurin to resorufin was recorded. […] The results were expressed as the median values determined based on at least three independent experiments performed in triplicate."}, "[2]": {"test_system": "Mycobacterium smegmatis mc(2)155", "format": "cell-based", "settings": "Mycobacterium mc(2)155, 24 h", "experimental": "(§2) The reduction of resazurin to resorufin was recorded."}, "S. aureus ATCC 29213": {"test_system": "S. aureus ATCC 29213", "format": "cell-based, Staphylococcus aureus", "settings": "ATCC 29213, 24 h", "experimental": "as §2"}, "E. coli 1057 WT": {"test_system": "E. coli 1057 WT", "assay": "microbe, parasite or virus in culture", "format": "cell-based, Escherichia coli", "settings": "MHB + 0.9% NaCl", "protocol": "as §3"}, "E. coli 1057": {"test_system": "E. coli 1057", "assay": "Serial passage resistance induction", "format": "cell-based, Escherichia coli", "settings": "serial passages, both media (MHB ±0.9%NaCl)", "experimental": "as §1, with “Briefly, on the first day, the overnight culture of the wild-type bacteria was diluted with the 2× MHB supplemented with 1.8% NaCl (or without salt) to reach a final cell concentration of 10^6 CFU/mL. 50 µL of the obtained bacterial suspension were added to aliquots of 50 µL of the peptide solutions serially diluted with the sterilized 0.1% BSA in 96-well flat-bottom polystyrene microplates.” left out"}, "[3]": {"test_system": "ribosome on ermCL / RST1 mRNA", "assay": "Toe-printing (primer-extension inhibition) in PURExpress system", "format": "biochemical", "settings": "5 µM", "experimental": "Toe-print analysis was performed as previously described[20] on two matrices: ErmCL and RST1. Briefly, the PURExpress system (NEB) was used for transcription and subsequent translation, then a reverse transcription reaction was performed. The ErmCL template was generated by PCR with two partially self-complementary oligonucleotides (Erm-F and Erm-R, Supplementary Table 8). […] oligonucleotide was used for reverse transcription. RST1 template was prepared as previously described[58] using PCR primers (T7fwd and NV1). Concentrations of tested compounds in toe-print were 0.5, 5, or 50 μM. 1% (v/v) DMSO water solution was used as a negative control sample. Two independent experiments were performed using both matrices, and the observed effects were the same."}, "E. coli ML-35p": {"test_system": "E. coli ML-35p", "assay": "Cytoplasmic membrane permeability assay (ONPG)", "format": "cell-based, Escherichia coli", "settings": "4 h exposure, 10 mM NaPB pH 7.4 + 0.9% NaCl, melittin = 100%, mean of two experiments", "experimental": "To examine the ability of the peptides to affect the barrier function of outer and inner membranes of Gram-negative bacteria, we slightly modified the previously described procedure[22] with the use of the E. coli ML-35p strain constitutively expressing cytoplasmic β-galactosidase but lacking lactose permease, and also containing β-lactamase in the periplasmic space. The state of the E. coli ML-35p outer and cytoplasmic membranes was assessed based on their permeability to chromogenic markers nitrocefin (Calbiochem) and o-nitrophenyl-β-D-galactopyranoside (ONPG, AppliChem) which are the β-lactamase and β-galactosidase substrates, respectively. The cells were incubated in the trypticase soy broth (TSB) for 16 h at 37 °C, washed three times with phosphate-buffered saline (PBS, pH 7.4) to remove residual growth media, adjusted to the concentration of 2.5 × 10^8 CFU/mL, and stored on ice until used. Experiments were performed in 10 mM sodium phosphate buffer (NaPB, pH 7.4) with or without the addition of 0.9% NaCl and/or a mixture of divalent cations (0.5 mM CaCl2 and 0.5 mM MgSO4). The final concentration of E. coli ML-35p cells was of 2.5 × 10^7 CFU/mL. The concentrations of ONPG and nitrocefin were of 2.5 mM and 20 µM, respectively. Peptide samples were placed in the wells of a 96-well flat-bottom polystyrene microplate, and optical density of the solution enhanced due to an appearance of the hydrolyzed nitrocefin or ONPG and was measured at 492 and 405 nm, respectively, using a microplate reader AF2200. The final volume in each well was 200 µL. Assays were performed at 37 °C under stirring at 500 rpm. Control experiments were performed under the same conditions without adding a peptide. Two independent experiments were performed, and the curve pattern was the same."}, "E. coli BW25113": {"test_system": "E. coli BW25113", "assay": "MIC broth microdilution", "format": "cell-based, Escherichia coli", "experimental": "as §2"}, "[4]": {"test_system": "E. coli BL21 (DE3) Star cell extract", "assay": "Cell-free protein synthesis (coupled transcription/translation) of EGFP", "format": "biochemical, Escherichia coli", "settings": "minimum concentration that provides >90% inhibition of the EGFP synthesis in the CFPS system", "experimental": "To investigate the effects of AMPs and antibiotics on the coupled transcription/translation process, the test compounds were added to a cell-free protein synthesis (CFPS) reaction mix with a plasmid encoding enhanced green fluorescent protein (EGFP) variant (F64L, S65T, Q80R, F99S, M153T, and V163A) under control of the T7 promoter. The cell lysate was prepared using the E. coli BL21 Star (DE3) overexpressed T7 RNA polymerase as described previously. The reaction mix consisted of the following components: 1.2 mM ATP, 0.8 mM UTP, 0.8 mM GTP, 0.8 mM CTP, 2 mM of each of 20 proteinogenic amino acids, 1.5 mM spermidine, 1 mM putrescine dihydrochloride, 0.06647 mM calcium folinate, […] tRNA from the E. coli MRE 600 strain, 0.33 mM NAD, 120 mM HEPES-KOH (pH 8.0), 10 mM ammonium glutamate, 175 mM potassium glutamate, 60 mM glucose, 15 mM magnesium glutamate, 2% PEG 8000, 25% E. coli BL21 Star (DE3) cell lysate, 1 ng/ml plasmid DNA. The reaction volume was 50 µL. The peptides were dissolved in PBS with the addition of 0.1% BSA. Erythromycin was used in the positive control reactions. The fluorescence of the sample without inhibitor was set as the 100% value. The reaction proceeded for 2 h in 96-well v-bottom black polystyrene microplates (Eppendorf #0030601904) in a plate shaker (30 °C, 1000 rpm). The fluorescence of the synthesized EGFP was measured with the microplate reader AF2200 (λEx = 488 nm, λEm = 510 nm; Eppendorf). The experimental data were obtained from at least two independent experiments performed in triplicate. Non-linear regression curves were generated using GraphPad Prism v.8.0.1 (GraphPad Software Inc.)."}},
  "note": "Bridge positions count the residues as written; N and C are the ends. Square brackets hold non-standard residues; d marks the D form. Ends that are not written are not given here. Peptide text beside a SMILES is read from it. * marks the point of attachment. X1 = CC[C@H](C)CCCCC(=O)*; Dab = NCC[C@H](N)C(=O)O",
  "data": [
    {"compound": "PR-39", "values": [
      {"measurement": "MIC", "setting": "mycobacteria", "value": "~ 10 µM"}
    ]},
    {"compound": "RIKIPRPPKPRRPHRPRPGRRRPWFPPRFP [Rumicidin-3]", "values": [
      {"measurement": "MIC", "setting": "[1]", "value": 4, "unit": "µM"},
      {"measurement": "median MIC", "setting": "panel of tested strains", "value": "about 2 µM"},
      {"measurement": "Minimum inhibitory concentration (MIC)", "setting": "[2]", "value": 4, "unit": "µM"},
      {"measurement": "MIC S. aureus ATCC 29213", "setting": "S. aureus ATCC 29213", "value": "> 32", "unit": "µM"}
    ]},
    {"compound": "CC[C@H](C)CCCCC(=O)N[C@@H](CCN)C(=O)N[C@H](C(=O)N[C@@H](CCN)C(=O)N[C@H]1CCNC(=O)[C@H]([C@@H](C)O)NC(=O)[C@H](CCN)NC(=O)[C@H](CCN)NC(=O)[C@H](CC(C)C)NC(=O)[C@@H](Cc2ccccc2)NC(=O)[C@H](CCN)NC1=O)[C@@H](C)O", "note": "[Polymyxin B] (X1-[Dab]T[Dab][Dab][Dab][dF]L[Dab][Dab]T; lactam 4-C (inferred); N-terminus assumed)", "values": [
      {"measurement": "MIC", "setting": "E. coli 1057 WT", "value": 0.062, "unit": "µM"},
      {"measurement": "MIC", "setting": "[1]", "value": 4, "unit": "µM"},
      {"measurement": "fold increase in MIC values under selection", "setting": "E. coli 1057", "value": 128, "unit": "fold"}
    ]},
    {"compound": "KPRPPHRPRPRPRPWFPPRFP [Rum-1[9-29]]", "values": [
      {"measurement": "toe-print result", "setting": "[3]", "value": "strong AUG toe-print signal comparable to that of the wild-type peptide"},
      {"measurement": "permeabilized cells (ONPG hydrolysis, % of melittin)", "setting": "E. coli ML-35p; 4 µM", "value": 0.080, "unit": "%"},
      {"measurement": "permeabilized cells (ONPG hydrolysis, % of melittin)", "setting": "E. coli ML-35p; 16 µM", "value": 1.213, "unit": "%"},
      {"measurement": "permeabilized cells (ONPG hydrolysis, % of melittin)", "setting": "E. coli ML-35p; 64 µM", "value": 3.493, "unit": "%"},
      {"measurement": "Minimum inhibitory concentration MHB + 0.9% NaCl", "setting": "E. coli BW25113; Mueller-Hinton broth + 0.9% NaCl, 24 h 37 °C, median of ≥3 experiments", "value": 32, "unit": "µM"},
      {"measurement": "Minimum inhibitory concentration MHB", "setting": "E. coli BW25113; Mueller-Hinton broth without salt, 24 h 37 °C, median of ≥3 experiments", "value": 8, "unit": "µM"},
      {"measurement": "fold change of MIC vs wild-type rumicidin-1", "setting": "E. coli BW25113; N-terminal shortening", "value": "≥ 4", "unit": "fold"},
      {"measurement": "Protein synthesis inhibition", "setting": "[4]", "value": 4, "unit": "µM"}
    ]}
  ]
}
